Data set [1] concerns drug-susceptible, MDR and XDR M.tb clinical isolates. Nature of the data set: microbe, parasite or virus in culture. The note with it: Mycobacterium tuberculosis. The data set is classed as cell-based, M. tuberculosis.
The subject of data set [2] is M. tuberculosis H37Rv. Nature of the data set: Acute murine model of intratracheal infection. The data set is classed as in vivo, C57BL/6 mice. The following applies: oral once daily for 8 days.
For another data set, the target named is T1, P-glycoprotein (P-gp) (Homo sapiens, UniProt P08183).
T1 construct: expressed in transfected cells; host or cells: MDR1-MDCKII (Madin-Darby canine kidney cells expressing MDR1)
Description: Efflux ratio with and without P-gp inhibitor GF120918 in MDR1-MDCKII cells. The data set is classed as in vitro ADME. Here is the method: The measured solubility in fasted state simulated intestinal fluid (FaSSIF) was high (Table 1). The permeability of GSK138 predicted from Madin-Darby canine kidney (MDCK) cells was also high (Table 1).
(§1) Studies were performed as described by Polli et al. ([31]), with minor modifications. GF120918 was used as the inhibitor of P-gp. Apical-to-basolateral and basolateral-to-apical transports were studied across MDR1-MDCKII cell monolayers in the absence and presence of the P-gp inhibitor GF120918, and the Papp (intrinsic apparent permeability) was estimated in both directions with or without inhibitor.

A further data set concerns the target hERG (Homo sapiens, UniProt Q12809). Description: hERG Qpatch. The data set is classed as biochemical. As for the experimental part: hERG activity was measured as previously described ([35]).
Background: hERG is a cardiac potassium channel; its block is linked to QT prolongation.

Another data set can be described thus: in vitro. The data set is classed as in vitro ADME, canine. The following applies: dog, MDCK-MDR1. Here is the method:
as §1

For data set [3], the system named is Madin-Darby canine kidney-MDR1. Description: in vitro. The data set is classed as in vitro ADME. As for the experimental part: as §1
Data set [4] deals with M. tuberculosis H37Rv. The data set is classed as in vivo, BALB/c mice.

Converted amounts (≈) assume the structure as drawn. Bounds are passed on as bounds.

For orientation: chromatographic logD means lipophilicity estimated from chromatographic retention. A lower chromatographic logD goes with lower lipophilicity. As usually defined, the IC50 is the midpoint of a concentration-inhibition curve. A high value points to lower potency. Broadly, the Papp is the rate of passage across a membrane or cell layer, normalised by area and donor concentration. A higher Papp goes with ready permeation.

T1 sequence (P08183 whole entry): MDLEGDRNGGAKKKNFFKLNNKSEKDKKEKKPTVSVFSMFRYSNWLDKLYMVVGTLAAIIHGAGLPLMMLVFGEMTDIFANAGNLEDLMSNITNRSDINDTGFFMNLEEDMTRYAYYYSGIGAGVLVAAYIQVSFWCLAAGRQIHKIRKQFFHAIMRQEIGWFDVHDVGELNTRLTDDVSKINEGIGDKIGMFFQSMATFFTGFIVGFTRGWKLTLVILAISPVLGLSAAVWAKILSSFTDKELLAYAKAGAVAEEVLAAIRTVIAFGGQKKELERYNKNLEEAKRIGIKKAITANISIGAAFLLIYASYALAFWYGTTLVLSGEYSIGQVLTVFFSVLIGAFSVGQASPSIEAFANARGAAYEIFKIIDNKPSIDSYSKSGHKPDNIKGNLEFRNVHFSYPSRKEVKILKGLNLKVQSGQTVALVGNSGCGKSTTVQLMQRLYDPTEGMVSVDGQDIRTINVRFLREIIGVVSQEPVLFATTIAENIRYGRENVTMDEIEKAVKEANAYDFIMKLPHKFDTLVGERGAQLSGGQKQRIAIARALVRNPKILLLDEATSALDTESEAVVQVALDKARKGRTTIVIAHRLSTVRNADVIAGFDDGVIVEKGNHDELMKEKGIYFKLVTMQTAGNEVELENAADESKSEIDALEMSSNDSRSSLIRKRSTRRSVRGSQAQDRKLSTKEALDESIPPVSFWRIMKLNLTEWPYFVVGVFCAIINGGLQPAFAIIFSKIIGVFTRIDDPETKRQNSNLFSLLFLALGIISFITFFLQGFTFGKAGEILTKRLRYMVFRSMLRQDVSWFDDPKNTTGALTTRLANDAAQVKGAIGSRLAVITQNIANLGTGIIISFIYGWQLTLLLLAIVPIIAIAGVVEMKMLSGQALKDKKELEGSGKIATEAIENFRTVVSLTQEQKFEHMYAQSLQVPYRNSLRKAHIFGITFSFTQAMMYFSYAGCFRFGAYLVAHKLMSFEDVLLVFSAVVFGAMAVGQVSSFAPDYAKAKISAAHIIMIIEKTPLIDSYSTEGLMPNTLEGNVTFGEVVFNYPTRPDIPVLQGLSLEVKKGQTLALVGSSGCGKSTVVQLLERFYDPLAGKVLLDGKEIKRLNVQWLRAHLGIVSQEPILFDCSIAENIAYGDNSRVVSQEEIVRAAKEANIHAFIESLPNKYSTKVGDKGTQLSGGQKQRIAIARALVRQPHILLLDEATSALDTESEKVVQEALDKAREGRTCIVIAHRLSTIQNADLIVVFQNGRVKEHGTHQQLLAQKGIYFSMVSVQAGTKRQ
Chain of hERG (Q12809 whole entry): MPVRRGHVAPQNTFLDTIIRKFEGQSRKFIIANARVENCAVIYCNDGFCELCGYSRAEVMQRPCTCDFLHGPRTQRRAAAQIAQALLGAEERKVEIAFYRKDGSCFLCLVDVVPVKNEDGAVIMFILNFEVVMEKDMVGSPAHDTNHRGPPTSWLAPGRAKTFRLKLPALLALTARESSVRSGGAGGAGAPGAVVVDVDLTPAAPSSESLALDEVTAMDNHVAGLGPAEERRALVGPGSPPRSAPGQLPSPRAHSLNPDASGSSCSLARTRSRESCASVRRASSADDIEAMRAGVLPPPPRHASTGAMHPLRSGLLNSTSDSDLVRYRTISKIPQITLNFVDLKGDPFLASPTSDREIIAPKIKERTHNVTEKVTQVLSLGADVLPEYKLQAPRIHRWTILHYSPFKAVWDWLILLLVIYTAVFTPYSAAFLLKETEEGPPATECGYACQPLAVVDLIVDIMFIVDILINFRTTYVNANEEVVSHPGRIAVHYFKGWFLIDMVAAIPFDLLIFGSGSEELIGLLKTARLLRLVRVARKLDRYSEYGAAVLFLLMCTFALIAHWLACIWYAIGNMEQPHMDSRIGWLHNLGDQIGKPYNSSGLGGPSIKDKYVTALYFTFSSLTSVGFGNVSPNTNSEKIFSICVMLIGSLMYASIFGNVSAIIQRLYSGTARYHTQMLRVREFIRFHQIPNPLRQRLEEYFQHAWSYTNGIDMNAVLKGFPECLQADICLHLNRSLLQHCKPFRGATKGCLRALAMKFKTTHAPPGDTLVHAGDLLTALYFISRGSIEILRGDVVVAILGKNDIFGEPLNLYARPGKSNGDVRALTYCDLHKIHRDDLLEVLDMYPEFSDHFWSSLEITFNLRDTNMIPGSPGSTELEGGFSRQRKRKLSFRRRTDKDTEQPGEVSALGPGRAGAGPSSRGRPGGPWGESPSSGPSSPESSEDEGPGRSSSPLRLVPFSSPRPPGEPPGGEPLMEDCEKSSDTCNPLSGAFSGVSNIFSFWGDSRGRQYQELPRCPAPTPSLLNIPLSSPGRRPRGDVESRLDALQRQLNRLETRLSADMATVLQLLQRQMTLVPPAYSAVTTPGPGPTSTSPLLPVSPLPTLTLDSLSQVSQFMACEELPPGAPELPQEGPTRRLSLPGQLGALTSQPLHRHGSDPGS

`Cc1csc([C@](C)(O)c2nnc(Nc3cc(C)n(Cc4csc(C)n4)n3)s2)n1` [GSK138]: the chromatographic logD in “physchem” (pH 7.4, Chrom logD) turned out to be 3.39; in the data set “physchem” (pH 7.4, chrom logD) it was 3.38. In data set [1], the MIC90 is 3.75 µM (≈ 1.63 µg/mL). The “effect on bacteria at the highest doses” value in the data set with M. tuberculosis H37Rv [2] is “net killing of the bacteria”. In addition, the “ED99 (dose producing a 2-log10 reduction in CFUs compared to untreated control mice)” value in the data set on M. tuberculosis H37Rv [2] (95% CI 50–67) came to 57 mg/kg. In addition, the “EDmax (dose at which 90% of the maximum bactericidal effect was achieved)” value in the data set with M. tuberculosis H37Rv [2] (95% CI 125 to >290) was 167 mg/kg. The “P-gp substrate status from efflux ratio” value at P-glycoprotein (P-gp) is “P-gp substrate”. In addition, the IC50 at hERG is over 30 µM. The compound also yielded a Papp in “in vitro” of 37.4 ×10⁻⁶ cm/s. Further, the “permeability predicted from MDCK cells” value in data set [3] is “high”. In addition, the “effect of addition to PaL, R + GSK656, or RZ + GSK656” value with M. tuberculosis H37Rv [4] (experiment 3, GSK138 200 mg/kg) is “did not significantly increase the activity”. The “effect of addition to BPaL, BPa or BPa + GSK656” value in the data set on M. tuberculosis H37Rv [4] (experiment 3, GSK138 200 mg/kg, 4 weeks (P < 0.01) and 8 weeks (P < 0.0001)) is on record as “significantly increased the activity”. Further, the “effect of addition to BPa” value in the data set with M. tuberculosis H37Rv [4] (experiment 4, 8 weeks of treatment) is “additive effects”. Moreover, in the data set on M. tuberculosis H37Rv [4] (experiment 5, 4 weeks of treatment), the “effect of addition to BPaL on bactericidal activity” value is “significantly increased the bactericidal activity”.

These data come from paper PMC11539229 (Antimicrobial Agents and Chemotherapy, 2024).
